According to patent EP4610262A1, “MACROCYCLIC COMPOUND AS CDK9 INHIBITOR AND USE THEREOF” (Artivila Biopharma, priority 2022, dated 2024):
Read-outs that look alike come from different tables or passages of the source.

Key:
ITK = ITK (Homo sapiens, UniProt Q08881); assay: Kinase selectivity, inhibition rate at 10 nM (caliper mobility shift assay); format: biochemical; conditions: compound at 10 nM
Description: (§1) Compounds were tested at a concentration of 10 nM with detection in duplicate wells, or tested at 10 concentrations starting from 10 µM with three-fold serial dilutions, with detection in duplicate wells.
(§2) The inhibitory effect of the compounds on the activity of CDK9 protein kinase was detected by the caliper mobility shift assay method. 250 nL of the compound at 100-fold final concentration was transferred to a target 384-well-plate with a dispenser Echo 550. A kinase solution at 2.5-fold final concentration was prepared using 1× kinase buffer. 10 µL of the kinase solution at 2.5-fold final concentration was added to the compound well and positive control well respectively. 10 µL of 1× kinase buffer was added to the negative control well. The 384-well plate was centrifuged at 1000 rpm for 30 seconds and incubated at room temperature for 10 minutes. A mixed solution of ATP and kinase substrate at 5/3-fold final concentration was prepared with 1× kinase buffer, and to the 384-well plate was added with 15 µL per well of the mixed solution of ATP and substrate at 5/3-fold final concentration to start the reaction. The plate was centrifuged at 1000 rpm for 30 seconds, shaken to mix evenly, and incubated at room temperature for a corresponding time. 30 µL of detection stopping solution was added to terminate the kinase reaction. The 384-well plate was centrifuged at 1000 rpm for 30 seconds and shaken to mix evenly. The conversion rate was read with Caliper EZ Reader. The percent conversion inhibition rate = (% positive control conversion rate mean - % sample conversion rate / (% positive control conversion rate mean - % negative control conversion rate mean). Among them: negative control wells represent the conversion rate readings of kinase buffer background wells; positive control wells represent the conversion rate readings of wells without inhibition by compound. With the log value of concentration as the x-axis and the percentage inhibition rate as the y-axis, a dose-response curve was fitted using the log (inhibitor) vs. response -Variable slope of the analysis software GraphPad Prism 5 to obtain the IC50 value of each compound on enzyme activity. Calculation formula: y=Bottom + (Top-Bottom)/(1+10^((LogIC50-x) × hillslope)), x: logarithm of inhibitor concentration; y: % inhibition rate.
According to the description of the above experiment on kinase activity inhibition, some compounds were tested for their selective inhibition rate against the kinases of CDK7, CDK9, JAK1, JAK2, JAK3, ITK, RET, TYK2, and LRRK2 at 10 nM. The results are shown in Table 3 below: (Inhibition rate range: A>50%; B: 25-49%; C: <25%): […]

CDK9 = CDK9 (Homo sapiens, UniProt P50750); assay: Inhibition of CDK9 kinase activity (caliper mobility shift assay); format: biochemical; conditions: for inhibition at 0.01 µM: compound at 10 nM
Chain of CDK9 (P50750 whole entry): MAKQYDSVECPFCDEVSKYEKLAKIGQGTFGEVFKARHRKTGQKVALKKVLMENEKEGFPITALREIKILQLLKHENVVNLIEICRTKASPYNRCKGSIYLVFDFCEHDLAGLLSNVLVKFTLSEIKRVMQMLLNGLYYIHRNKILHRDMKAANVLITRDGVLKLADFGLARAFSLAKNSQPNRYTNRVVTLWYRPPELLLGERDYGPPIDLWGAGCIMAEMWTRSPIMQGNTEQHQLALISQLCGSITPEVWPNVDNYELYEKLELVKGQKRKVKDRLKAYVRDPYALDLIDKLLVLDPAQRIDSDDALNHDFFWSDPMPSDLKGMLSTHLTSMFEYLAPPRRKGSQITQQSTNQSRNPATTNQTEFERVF
Chain of CDK9 (O60563 whole entry partner): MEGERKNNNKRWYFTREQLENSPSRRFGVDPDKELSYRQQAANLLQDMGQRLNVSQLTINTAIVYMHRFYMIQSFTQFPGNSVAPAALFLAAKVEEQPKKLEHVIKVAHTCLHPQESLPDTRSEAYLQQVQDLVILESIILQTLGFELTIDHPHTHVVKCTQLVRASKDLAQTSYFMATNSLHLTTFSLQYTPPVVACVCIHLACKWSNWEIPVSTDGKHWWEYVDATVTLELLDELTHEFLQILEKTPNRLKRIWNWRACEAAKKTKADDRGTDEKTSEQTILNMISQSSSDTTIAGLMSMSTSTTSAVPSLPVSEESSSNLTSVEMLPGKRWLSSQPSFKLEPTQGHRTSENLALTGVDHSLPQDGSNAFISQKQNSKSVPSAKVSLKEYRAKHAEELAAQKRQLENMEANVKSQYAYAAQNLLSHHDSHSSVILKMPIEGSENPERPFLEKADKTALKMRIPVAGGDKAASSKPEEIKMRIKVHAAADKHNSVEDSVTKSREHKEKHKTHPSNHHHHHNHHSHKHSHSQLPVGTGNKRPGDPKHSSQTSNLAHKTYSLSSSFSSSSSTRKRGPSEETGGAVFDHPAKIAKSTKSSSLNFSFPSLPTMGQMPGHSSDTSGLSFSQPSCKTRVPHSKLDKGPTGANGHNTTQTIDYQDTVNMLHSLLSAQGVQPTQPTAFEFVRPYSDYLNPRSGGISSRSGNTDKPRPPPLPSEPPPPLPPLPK
Description: as §1, §2

Chain of ITK (Q08881 whole entry): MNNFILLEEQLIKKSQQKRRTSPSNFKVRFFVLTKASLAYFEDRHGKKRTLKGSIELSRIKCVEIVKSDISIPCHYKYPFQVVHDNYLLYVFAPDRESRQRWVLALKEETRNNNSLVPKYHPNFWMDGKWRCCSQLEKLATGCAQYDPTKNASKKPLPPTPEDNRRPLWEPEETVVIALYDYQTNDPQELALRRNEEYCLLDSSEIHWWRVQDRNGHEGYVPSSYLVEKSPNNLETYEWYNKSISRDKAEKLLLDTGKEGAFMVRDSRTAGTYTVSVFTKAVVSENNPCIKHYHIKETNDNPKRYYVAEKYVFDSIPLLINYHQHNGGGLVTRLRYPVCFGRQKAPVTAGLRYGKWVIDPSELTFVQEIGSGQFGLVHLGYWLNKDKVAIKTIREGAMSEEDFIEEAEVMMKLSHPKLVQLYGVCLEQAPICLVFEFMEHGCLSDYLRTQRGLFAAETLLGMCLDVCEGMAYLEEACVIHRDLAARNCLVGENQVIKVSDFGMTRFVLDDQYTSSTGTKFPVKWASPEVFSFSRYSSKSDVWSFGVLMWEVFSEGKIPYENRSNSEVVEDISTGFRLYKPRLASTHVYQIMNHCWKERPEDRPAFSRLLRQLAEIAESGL

Question: How did the inhibition at 0.01 µM (ITK) turn out when `Clc1cnc2nc1NCCCCCNCc1cccc(c1)N2` [Compound 8, 1^5-chloro-2,5,11-triaza-1(2,4)-pyrimidina-3(1,3)-benzenacyclodecaphane] was run?
Answer: < 25%

Question: What about the IC50 (CDK9; 10 concentrations from 10 µM, three-fold dilutions) of the same molecule?
Answer: < 100 nM

Question: And the inhibition at 0.01 µM (CDK9; selectivity panel Table 3, read-out: Inhibition rate CDK9)?
Answer: > 50%

Question: And the inhibition at 0.01 µM (CDK9; read-out: Inhibition rate on CDK9 kinase activity)?
Answer: > 50%
